Experimental data published in patent US7183260B2, “C-terminal modified oxamyl dipeptides as inhibitors of the ICE/ced-3 family of cysteine proteases” (Idun Pharmaceuticals, Inc., priority 1998, dated 2007).
Where two headings read alike, the source gives them in different places.

Assays:
Format in all cases: biochemical
[1] = molecular target: T1, mICE (Mus musculus, UniProt P29452); experiment: Dissociation constant Ki and irreversible rate constant k3 for irreversible inhibitors (ICE)
T1 sequence (P29452 123-296 limits assumed): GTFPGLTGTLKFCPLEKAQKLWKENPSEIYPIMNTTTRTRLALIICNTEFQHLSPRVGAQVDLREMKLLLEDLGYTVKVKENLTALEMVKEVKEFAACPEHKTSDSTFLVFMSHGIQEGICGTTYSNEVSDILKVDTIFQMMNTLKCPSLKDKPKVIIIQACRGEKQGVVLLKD
T1 sequence (P29452 315-402 limits assumed): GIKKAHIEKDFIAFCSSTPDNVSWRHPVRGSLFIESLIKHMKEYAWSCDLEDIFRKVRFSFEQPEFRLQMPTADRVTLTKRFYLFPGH

[2] = molecular target: T2, CPP32 (Homo sapiens, UniProt P42574); experiment: Dissociation constant Ki and irreversible rate constant k3 for irreversible inhibitors (CPP32)
T2 sequence (P42574 29-175 limits assumed): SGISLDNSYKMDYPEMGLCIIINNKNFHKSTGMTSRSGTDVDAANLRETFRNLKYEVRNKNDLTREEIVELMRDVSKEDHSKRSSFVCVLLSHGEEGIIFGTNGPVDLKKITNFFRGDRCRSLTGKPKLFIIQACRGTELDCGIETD
T2 sequence (P42574 176-277 limits assumed): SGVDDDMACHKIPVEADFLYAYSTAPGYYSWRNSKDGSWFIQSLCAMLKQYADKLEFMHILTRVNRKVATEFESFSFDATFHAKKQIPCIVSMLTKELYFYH

[3] = molecular target: T3, MCH-2 (Homo sapiens, UniProt P55212); experiment: Dissociation constant Ki and irreversible rate constant k3 for irreversible inhibitors (Mch2)
T3 sequence (P55212 24-179 limits assumed): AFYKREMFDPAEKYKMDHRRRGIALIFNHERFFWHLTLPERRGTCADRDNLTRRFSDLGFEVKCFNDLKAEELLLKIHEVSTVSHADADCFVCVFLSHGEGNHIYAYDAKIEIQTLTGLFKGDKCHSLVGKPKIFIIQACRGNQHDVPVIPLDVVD
T3 sequence (P55212 194-293 limits assumed): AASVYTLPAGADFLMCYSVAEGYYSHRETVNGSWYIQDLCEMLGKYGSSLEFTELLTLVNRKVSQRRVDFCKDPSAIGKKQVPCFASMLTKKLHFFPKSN

[4] = molecular target: MCH-5 (Homo sapiens, UniProt Q14790); experiment: Dissociation constant Ki and irreversible rate constant k3 for irreversible inhibitors (Mch5)
[5] = continuous assay 60 min, reaction initiated by adding enzyme to substrate-inhibitor mixture

Chain of MCH-5 (Q14790 217-374 limits assumed, species assumed): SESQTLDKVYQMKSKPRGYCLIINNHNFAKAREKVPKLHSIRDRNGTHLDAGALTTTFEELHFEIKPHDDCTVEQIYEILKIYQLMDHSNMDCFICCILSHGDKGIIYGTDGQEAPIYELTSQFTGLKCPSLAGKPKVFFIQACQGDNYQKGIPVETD
Chain of MCH-5 (Q14790 385-479 limits assumed, species assumed): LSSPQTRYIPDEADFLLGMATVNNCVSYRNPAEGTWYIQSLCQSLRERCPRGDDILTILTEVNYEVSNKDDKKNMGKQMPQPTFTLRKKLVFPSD

Row | SMILES | Ki [1, 5] [nM] | mICE k3/Ki [1, 5] | CPP32 k3/Ki [2, 5] | Ki [2, 5] [nM] | Ki [3, 5] [nM] | MCH-2 k3/Ki [3, 5] | Ki [4, 5] [nM] | MCH-5 k3/Ki [4, 5] | Ki [1] [nM] | mICE k3/Ki [1] | CPP32 k3/Ki [2] | Ki [2] [nM] | Ki [3] [nM] | MCH-2 k3/Ki [3] | Ki [4] [nM] | MCH-5 k3/Ki [4]
1 | C[C@H](NC(=O)C(=O)Nc1ccccc1C(C)(C)C)C(=O)N[C@@H](CC(=O)O)C(=O)COc1ccccc1F [Example 31] | 31 | 442,000 moles^−1 seconds^−1 | 67,700 moles^−1 seconds^−1 | 60 | 71 | 54,900 moles^−1 seconds^−1 | 45 | 119,000 moles^−1 seconds^−1 | – | – | – | – | – | – | – | –
2 | CC(C)[C@H](NC(=O)C(=O)Nc1c(F)cccc1F)C(=O)N[C@@H](CC(=O)O)C(=O)COc1c(F)c(F)cc(F)c1F [Example 108] | 4.8 | 2,680,000 moles^−1 seconds^−1 | 62,900 moles^−1 seconds^−1 | 102 | 8 | 1,083,000 moles^−1 seconds^−1 | 1.9 | 1,830,000 moles^−1 seconds^−1 | – | – | – | – | – | – | – | –
3 | C[C@H](NC(=O)C(=O)Nc1ccccc1-c1ccccc1)C(=O)N[C@@H](CC(=O)O)C(=O)COc1ccccc1F [Example 28] | 46 | 167,000 moles^−1 seconds^−1 | 55,600 moles^−1 seconds^−1 | 109 | 42 | 35,000 moles^−1 seconds^−1 | 5.8 | 37,800 moles^−1 seconds^−1 | – | – | – | – | – | – | – | –
4 | C[C@H](NC(=O)C(=O)NC1CCCCC1)C(=O)N[C@@H](CC(=O)O)C(=O)COP(=O)(c1ccccc1)c1ccccc1 [Example 56] | 5.3 | 2,032,000 moles^−1 seconds^−1 | 137,000 moles^−1 seconds^−1 | 96 | 25 | 97,500 moles^−1 seconds^−1 | 2.5 | 1,790,000 moles^−1 seconds^−1 | – | – | – | – | – | – | – | –
5 | C[C@H](NC(=O)C(=O)Nc1ccccc1Cl)C(=O)N[C@@H](CC(=O)O)C(=O)COP(=O)(c1ccccc1)c1ccccc1 [Example 57] | 5.3 | 1,980,000 moles^−1 seconds^−1 | 564,000 moles^−1 seconds^−1 | 44 | 13 | 373,000 moles^−1 seconds^−1 | 2.1 | 2,330,000 moles^−1 seconds^−1 | – | – | – | – | – | – | – | –
6 | CC(C)[C@H](NC(=O)C(=O)Nc1cnccn1)C(=O)N[C@@H](CC(=O)O)C(=O)COc1c(F)c(F)cc(F)c1F [Example 103] | 5.3 | – | – | 60 | 17 | – | 4.7 | – | – | – | – | – | – | – | – | –
7 | CCCCCCCc1ccc(NC(=O)C(=O)N[C@H](C(=O)N[C@@H](CC(=O)O)C(=O)COc2c(F)c(F)cc(F)c2F)C(C)C)cc1 [Example 94] | 24 | 657,000 moles^−1 seconds^−1 | 11,200 moles^−1 seconds^−1 | 1110 | 59 | 50,000 moles^−1 seconds^−1 | 12 | 155,000 moles^−1 seconds^−1 | – | – | – | – | – | – | – | –
8 | C[C@H](NC(=O)C(=O)Nc1cccc2c1CCCC2)C(=O)N[C@@H](CC(=O)O)C(=O)COc1c(F)c(F)cc(F)c1F [Example 50] | 640 | 22,000 moles^−1 seconds^−1 | 118,000 moles^−1 seconds^−1 | 129 | 72 | 64,100 moles^−1 seconds^−1 | 74 | 46,200 moles^−1 seconds^−1 | – | – | – | – | – | – | – | –
9 | CC(C)[C@H](NC(=O)C(=O)Nc1cccc2ccccc12)C(=O)N[C@@H](CC(=O)O)C(=O)COP(C)(=O)c1ccccc1 (stereo partly drawn) [Example 10] | 6.5 | – | – | 19 | 11 | – | 5.4 | – | – | – | – | – | – | – | – | –
10 | C[C@H](NC(=O)C(=O)Nc1cccc2c1CCCC2)C(=O)N[C@@H](CC(=O)O)C(=O)COP(=O)(c1ccccc1)c1ccccc1 [Example 48] | 11 | 905,000 moles^−1 seconds^−1 | 139,000 moles^−1 seconds^−1 | 69 | 22 | 132,000 moles^−1 seconds^−1 | 4.1 | 1,150,000 moles^−1 seconds^−1 | – | – | – | – | – | – | – | –
11 | CC(C)[C@H](NC(=O)C(=O)Nc1cccc2ccccc12)C(=O)N[C@@H](CC(=O)O)C(=O)COc1c(F)c(F)cc(F)c1F [Example 7] | 5.7 | – | – | 46 | 16 | – | 3.7 | – | – | – | – | – | – | – | – | –
12 | CC(C)[C@H](NC(=O)C(=O)Nc1cc(C(C)(C)C)ccc1C(C)(C)C)C(=O)N[C@@H](CC(=O)O)C(=O)COc1c(F)c(F)cc(F)c1F [Example 109] | 25 | 767,000 moles^−1 seconds^−1 | 70,600 moles^−1 seconds^−1 | 193 | 232 | 8,230 moles^−1 seconds^−1 | 34 | 51,300 moles^−1 seconds^−1 | – | – | – | – | – | – | – | –
13 | C[C@H](NC(=O)C(=O)Nc1ccccc1Cl)C(=O)N[C@@H](CC(=O)O)C(=O)COC(=O)c1c(Cl)cccc1Cl [Example 58] | 54 | 278,000 moles^−1 seconds^−1 | 323,000 moles^−1 seconds^−1 | 43 | 18 | 281,000 moles^−1 seconds^−1 | 7.1 | 396,000 moles^−1 seconds^−1 | – | – | – | – | – | – | – | –
14 | CC(C)[C@H](NC(=O)C(=O)Nc1ccc(F)cc1)C(=O)N[C@@H](CC(=O)O)C(=O)COc1c(F)c(F)cc(F)c1F [Example 91] | 16 | 906,000 moles^−1 seconds^−1 | 36,300 moles^−1 seconds^−1 | 758 | 59 | 121,000 moles^−1 seconds^−1 | 15 | 338,000 moles^−1 seconds^−1 | – | – | – | – | – | – | – | –
15 | C[C@H](NC(=O)C(=O)Nc1ccccc1Cl)C(=O)N[C@@H](CC(=O)O)C(=O)COC(=O)c1c(Cl)cccc1Cl [Example 42] | 7 | 1,940,000 moles^−1 seconds^−1 | 842,000 moles^−1 seconds^−1 | 21 | 7 | 745,000 moles^−1 seconds^−1 | 4.6 | 1,630,000 moles^−1 seconds^−1 | – | – | – | – | – | – | – | –
16 | CC(C)[C@H](NC(=O)C(=O)Nc1ccccc1Cl)C(=O)N[C@@H](CC(=O)O)C(=O)COc1c(F)c(F)cc(F)c1F [Example 105] | 8.4 | 1,540,000 moles^−1 seconds^−1 | 96,300 moles^−1 seconds^−1 | 122 | 26 | 161,000 moles^−1 seconds^−1 | 52 | 234,000 moles^−1 seconds^−1 | – | – | – | – | – | – | – | –
17 | C[C@H](NC(=O)C(=O)Nc1ccccc1C(C)(C)C)C(=O)N[C@@H](CC(=O)O)C(=O)COC(=O)c1c(Cl)cccc1Cl [Example 76] | 19 | 537,000 moles^−1 seconds^−1 | 62,900 moles^−1 seconds^−1 | 85 | 235 | 6,960 moles^−1 seconds^−1 | 22 | 30,200 moles^−1 seconds^−1 | – | – | – | – | – | – | – | –
18 | C[C@H](NC(=O)C(=O)Nc1ccccc1C(C)(C)C)C(=O)N[C@@H](CC(=O)O)C(=O)COP(=O)(c1ccccc1)c1ccccc1 [Example 47] | 14 | 625,000 moles^−1 seconds^−1 | 395,000 moles^−1 seconds^−1 | 24 | 11 | 484,000 moles^−1 seconds^−1 | 8.7 | 589,000 moles^−1 seconds^−1 | – | – | – | – | – | – | – | –
19 | CC(C)[C@H](NC(=O)C(=O)Nc1ccccc1Br)C(=O)N[C@@H](CC(=O)O)C(=O)COc1c(F)c(F)cc(F)c1F [Example 106] | 9 | 1,080,000 moles^−1 seconds^−1 | 276,000 moles^−1 seconds^−1 | 63 | 19 | 230,000 moles^−1 seconds^−1 | 3.4 | 1,305,000 moles^−1 seconds^−1 | – | – | – | – | – | – | – | –
20 | C[C@H](NC(=O)C(=O)NC12CC3CC(CC(C3)C1)C2)C(=O)N[C@@H](CC(=O)O)C(=O)COC(=O)c1c(Cl)cccc1Cl [Example 54] | – | – | – | – | – | – | – | – | 348 | 46,000 moles^−1 seconds^−1 | 20,500 moles^−1 seconds^−1 | 409 | 120 | 21,100 moles^−1 seconds^−1 | 80 | 18,700 moles^−1 seconds^−1
21 | C[C@H](NC(=O)C(=O)Nc1ccc(F)cc1)C(=O)N[C@@H](CC(=O)O)C(=O)COP(=O)(c1ccccc1)c1ccccc1 [Example 43] | 13 | 956,000 moles^−1 seconds^−1 | 268,000 moles^−1 seconds^−1 | 52 | 9 | 424,000 moles^−1 seconds^−1 | 3.6 | 2,300,000 moles^−1 seconds^−1 | – | – | – | – | – | – | – | –
